This note sets out measurements from US8309552B2, “Immunomodulating heterocyclic compounds” (Medigene AG, priority 2003, dated 2012).

pEC50: −log10 of the molar value.

In this experiment the target is T1, CD80-CD28 interaction (Homo sapiens, UniProt P33681).
T1 sequence (P33681 35-242 limits assumed): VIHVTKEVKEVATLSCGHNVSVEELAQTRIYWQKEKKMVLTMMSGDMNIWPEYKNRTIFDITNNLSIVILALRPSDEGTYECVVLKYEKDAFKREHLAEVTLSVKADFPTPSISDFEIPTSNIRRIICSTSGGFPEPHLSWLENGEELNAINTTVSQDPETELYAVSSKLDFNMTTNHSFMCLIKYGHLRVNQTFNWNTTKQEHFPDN
The experiment can be described thus: Homogenous Time Resolved Fluorescence (HTRF) assay, cell free. As to conditions: cell free HTRF assay; concentration series 100 μM-1.7 nM; 4 hours at room temperature; read-out: Activity (EC50 in the HTRF assay). Type of experiment: binding. Put shortly:
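Europium and APC labels were linked through antibodies to CD28 and CD80 fusion proteins. Compounds were tested at 100 μM-1.7 nM for 4 h at room temperature in 50 mM Tris-HCl, 150 mM NaCl pH7.8, 0.1% BSA. Emission read at 665 and 615 nm (excitation 340 nm); non-specific signal measured with C215 Fab in place of CD80; EC50 reported in bands.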
`CN1C(C)(C)CC(NC(=O)c2ccc(-n3[nH]c4c(nnc5c(F)cccc54)c3=O)cc2)CC1(C)C` [Example 234]: the negative-log EC50 (pEC50) was more than 6.00.
To `COc1ccc(CNC(=O)c2ccc(-n3[nH]c4c(nnc5ccccc54)c3=O)cc2)c(OC)c1` [Example 236] belongs less than 5.00; to `CN(C)c1ccc(CNC(=O)c2ccc(-n3[nH]c4c(nnc5ccccc54)c3=O)cc2)cc1` [Example 237], more than 6.00.
`O=C(NCC1CCCO1)c1ccc(-n2[nH]c3c(nnc4ccccc43)c2=O)cc1` (stereo not shown) [Example 238]: the pEC50 is 5.00 to 6.00.
For the compound `O=C(NC1CCC1)c1ccc(-n2[nH]c3c(nnc4ccccc43)c2=O)cc1` [Example 239], the pEC50 was 5.00 to 6.00.
The same measure for `COc1ccc(CNC(=O)c2ccc(-n3[nH]c4c(nnc5ccccc54)c3=O)cc2)cc1` [Example 240]: more than 6.00.
As for `CCCCNC(=O)c1ccc(-n2[nH]c3c(nnc4ccccc43)c2=O)cc1` [Example 241], the negative logarithm of the EC50 (pEC50) is 5.00 to 6.00.
As for `O=C(NCc1ccco1)c1ccc(-n2[nH]c3c(nnc4ccccc43)c2=O)cc1` [Example 242], the pEC50 was more than 6.00.
To `CC(C)NC(=O)c1ccc(-n2[nH]c3c(nnc4ccccc43)c2=O)cc1` [Example 243] belongs more than 6.00; to `O=C(NCC1CCCCC1)c1ccc(-n2[nH]c3c(nnc4ccccc43)c2=O)cc1` [Example 244], 5.00 to 6.00.
Take `CCCCCCCNC(=O)c1ccc(-n2[nH]c3c(nnc4ccccc43)c2=O)cc1` [Example 245]: the pEC50 was 5.00 to 6.00.
Take `C=CCNC(=O)c1ccc(-n2[nH]c3c(nnc4ccccc43)c2=O)cc1` [Example 246]: the negative-log EC50 (pEC50) was more than 6.00.
The same measure for `COCCCNC(=O)c1ccc(-n2[nH]c3c(nnc4ccccc43)c2=O)cc1` [Example 247]: more than 6.00.
Take `O=C(NCc1cccc(C(F)(F)F)c1)c1ccc(-n2[nH]c3c(nnc4ccccc43)c2=O)cc1` [Example 248]: the pEC50 was less than 5.00.
For `O=C(NCc1cccc(F)c1)c1ccc(-n2[nH]c3c(nnc4ccccc43)c2=O)cc1` [Example 250], the pEC50 was more than 6.00.
To `CCCCCNC(=O)c1ccc(-n2[nH]c3c(nnc4ccccc43)c2=O)cc1` [Example 251] belongs less than 5.00.
`O=C(NC1CCc2ccccc21)c1ccc(-n2[nH]c3c(nnc4ccccc43)c2=O)cc1` (stereo not shown) [Example 252]: the pEC50 is less than 5.00.
To `O=C(NCCSCc1c(F)cccc1Cl)c1ccc(-n2[nH]c3c(nnc4ccccc43)c2=O)cc1` [Example 254] belongs less than 5.00; to `O=C(NCCc1cccs1)c1ccc(-n2[nH]c3c(nnc4ccccc43)c2=O)cc1` [Example 255], less than 5.00; to `O=C(NCC1CCNCC1)c1ccc(-n2[nH]c3c(nnc4ccccc43)c2=O)cc1` [Example 256], 5.00 to 6.00.
To `CCC(C)NC(=O)c1ccc(-n2[nH]c3c(nnc4ccccc43)c2=O)cc1` (stereo not shown) [Example 258] belongs 5.00 to 6.00; to `O=C(NCCN1CCCC1)c1ccc(-n2[nH]c3c(nnc4ccccc43)c2=O)cc1` [Example 259], more than 6.00; to `CC(C)CNC(=O)c1ccc(-n2[nH]c3c(nnc4ccccc43)c2=O)cc1` [Example 260], 5.00 to 6.00.
To `CC(NC(=O)Nc1ccc(-n2[nH]c3c(nnc4ccccc43)c2=O)cc1)C1CCCCC1` (stereo not shown) [Example 261] belongs less than 5.00; to `CC(NC(=O)Nc1ccc(-n2[nH]c3c(nnc4ccccc43)c2=O)cc1)C(C)(C)C` (stereo not shown) [Example 262], less than 5.00; to `CC(C)C(C)NC(=O)Nc1ccc(-n2[nH]c3c(nnc4ccccc43)c2=O)cc1` (stereo not shown) [Example 263], 5.00 to 6.00.
`CC(C)(C)OC(=O)N1CCC(CNC(=O)Nc2ccc(-n3[nH]c4c(nnc5ccccc54)c3=O)cc2)CC1` [Example 264]: the negative logarithm of the EC50 (pEC50) was less than 5.00.
Take `CN(CCNC(=O)Nc1ccc(-n2[nH]c3c(nnc4ccccc43)c2=O)cc1)C(=O)OC(C)(C)C` [Example 265]: the pEC50 is less than 5.00.
In the case of `O=C(NCCCCNC(=O)c1ccc(-n2[nH]c3c(nnc4ccccc43)c2=O)cc1)OCc1ccccc1` [Example 266], the pEC50 was more than 6.00.
Consider `O=C(NC1CONC1=O)c1ccc(-n2[nH]c3c(nnc4ccccc43)c2=O)cc1` (stereo not shown) [Example 267], for which the negative logarithm of the EC50 (pEC50) is 5.00 to 6.00.
Take `O=C(NCCc1c[nH]c2ccccc12)c1ccc(-n2[nH]c3c(nnc4ccccc43)c2=O)cc1` [Example 268]: the pEC50 is 5.00 to 6.00.
As to `CCCNCCNC(=O)c1ccc(-n2[nH]c3c(nnc4ccccc43)c2=O)cc1` [Example 269], the negative-log EC50 (pEC50) was less than 5.00.
Take `O=C(NCCc1ccccc1)c1ccc(-n2[nH]c3c(nnc4ccccc43)c2=O)cc1` [Example 270]: the negative-log EC50 (pEC50) is less than 5.00.
As for `NCCCCCCNC(=O)c1ccc(-n2[nH]c3c(nnc4ccccc43)c2=O)cc1` [Example 271], the negative logarithm of the EC50 (pEC50) was more than 6.00.
Turning to `O=C(NCCC1=CCCCC1)c1ccc(-n2[nH]c3c(nnc4ccccc43)c2=O)cc1` [Example 272], the pEC50 was less than 5.00.
For `CCCCCCCCCCCCOCCCNC(=O)c1ccc(-n2[nH]c3c(nnc4ccccc43)c2=O)cc1` [Example 273], the pEC50 is less than 5.00.
To `CSCCCNC(=O)c1ccc(-n2[nH]c3c(nnc4ccccc43)c2=O)cc1` [Example 274] belongs more than 6.00; to `CCOC(=O)C1CCCC1NC(=O)c1ccc(-n2[nH]c3c(nnc4ccccc43)c2=O)cc1` (stereo not shown) [Example 275], 5.00 to 6.00.
As to `CCC(COCc1ccccc1)NC(=O)c1ccc(-n2[nH]c3c(nnc4ccccc43)c2=O)cc1` (stereo not shown) [Example 276], the pEC50 is 5.00 to 6.00.
In the case of `O=C(NC1CCOC1=O)c1ccc(-n2[nH]c3c(nnc4ccccc43)c2=O)cc1` (stereo not shown) [Example 277], the negative logarithm of the EC50 (pEC50) was 5.00 to 6.00.
To `O=C(NC1CN2CCC1CC2)c1ccc(-n2[nH]c3c(nnc4ccccc43)c2=O)cc1` (stereo not shown) [Example 278] belongs more than 6.00; to `CCCCNCCNC(=O)c1ccc(-n2[nH]c3c(nnc4ccccc43)c2=O)cc1` [Example 279], more than 6.00.
Regarding `CCN(CC)CCNCCNC(=O)c1ccc(-n2[nH]c3c(nnc4ccccc43)c2=O)cc1` [Example 280], the pEC50 was more than 6.00.
Regarding `O=C(NCCNCc1ccccc1)c1ccc(-n2[nH]c3c(nnc4ccccc43)c2=O)cc1` [Example 281], the pEC50 was more than 6.00.
In the case of `CCNC(=O)Nc1ccc(-n2[nH]c3c(nnc4ccccc43)c2=O)cc1` [Example 282], the pEC50 is more than 6.00.
Regarding `CC(C)=CCC/C(C)=C/CNC(=O)Nc1ccc(-n2[nH]c3c(nnc4ccccc43)c2=O)cc1` [Example 283], the negative-log EC50 (pEC50) is less than 5.00.
`O=C(NCc1cccc(F)c1)Nc1ccc(-n2[nH]c3c(nnc4ccccc43)c2=O)cc1` [Example 284]: the negative logarithm of the EC50 (pEC50) is less than 5.00.
To `O=C(NCCc1cnc[nH]1)Nc1ccc(-n2[nH]c3c(nnc4ccccc43)c2=O)cc1` [Example 285] belongs more than 6.00.
To `O=C(NCc1ccc2c(c1)OCO2)Nc1ccc(-n2[nH]c3c(nnc4ccccc43)c2=O)cc1` [Example 286] belongs less than 5.00; to `O=C(NCCN1CCNC1=O)Nc1ccc(-n2[nH]c3c(nnc4ccccc43)c2=O)cc1` [Example 287], more than 6.00.
For `O=C(NCCc1cccs1)Nc1ccc(-n2[nH]c3c(nnc4ccccc43)c2=O)cc1` [Example 289], the pEC50 was 5.00 to 6.00.
Consider `O=C(NCC1CCNCC1)Nc1ccc(-n2[nH]c3c(nnc4ccccc43)c2=O)cc1` [Example 290], for which the pEC50 is more than 6.00.
With `O=C(NCCCc1ccccc1)Nc1ccc(-n2[nH]c3c(nnc4ccccc43)c2=O)cc1` [Example 291], the pEC50 is less than 5.00.
The same measure for `O=C(Nc1ccc(-n2[nH]c3c(nnc4ccccc43)c2=O)cc1)NC1CCCC1OCc1ccccc1` (stereo not shown) [Example 292]: less than 5.00; for `O=C(Nc1ccc(-n2[nH]c3c(nnc4ccccc43)c2=O)cc1)Nc1nc2ccccc2s1` [Example 293]: less than 5.00.
For `CC(C)(C)OC(=O)N1CCN(CCNC(=O)Nc2ccc(-n3[nH]c4c(nnc5ccccc54)c3=O)cc2)CC1` [Example 294], the pEC50 is 5.00 to 6.00.
On to `O=C(NCc1ccc([N+](=O)[O-])cc1)Nc1ccc(-n2[nH]c3c(nnc4ccccc43)c2=O)cc1` [Example 296], for which the negative-log EC50 (pEC50) is less than 5.00.
For the compound `O=C(NCCCN1CCCC1=O)Nc1ccc(-n2[nH]c3c(nnc4ccccc43)c2=O)cc1` [Example 297], the pEC50 was 5.00 to 6.00.
On to `O=C(NCCCn1ccnc1)Nc1ccc(-n2[nH]c3c(nnc4ccccc43)c2=O)cc1` [Example 298], for which the negative-log EC50 (pEC50) was more than 6.00.
To `O=C(Nc1ccc(-n2[nH]c3c(nnc4ccccc43)c2=O)cc1)NC1CCCCCC1` [Example 299] belongs less than 5.00.
As to `O=C(NCCN1CCNCC1)Nc1ccc(-n2[nH]c3c(nnc4ccccc43)c2=O)cc1` [Example 300], the negative logarithm of the EC50 (pEC50) is more than 6.00.
The same measure for `CC1(C)CC(NC(=O)Nc2ccc(-n3[nH]c4c(nnc5ccccc54)c3=O)cc2)CC(C)(C)N1` [Example 301]: more than 6.00.
As for `O=C(NCCNc1ccc([N+](=O)[O-])cn1)Nc1ccc(-n2[nH]c3c(nnc4ccccc43)c2=O)cc1` [Example 302], the negative-log EC50 (pEC50) was less than 5.00.
Take `CCOC(=O)N1CCC(NC(=O)Nc2ccc(-n3[nH]c4c(nnc5ccccc54)c3=O)cc2)CC1` [Example 303]: the negative-log EC50 (pEC50) is less than 5.00.
`CC(CCc1ccccc1)NC(=O)Nc1ccc(-n2[nH]c3c(nnc4ccccc43)c2=O)cc1` (stereo not shown) [Example 304]: the pEC50 is less than 5.00.
To `COC(CNC(=O)Nc1ccc(-n2[nH]c3c(nnc4ccccc43)c2=O)cc1)OC` [Example 306] belongs more than 6.00.
To `CCOC(CNC(=O)Nc1ccc(-n2[nH]c3c(nnc4ccccc43)c2=O)cc1)OCC` [Example 307] belongs 5.00 to 6.00.
